Results on 20 compounds are retold here after patent US7884204B2, “Phenylalanine derivatives” (Ajinomoto Co., Inc., priority 2001, dated 2011).

pIC50: −log10 of the molar value.

The target of assay [1] is T1, integrin α4β1 (Homo sapiens, UniProt P05556+P13612).
T1 construct: cell strain Jurkat (ATCC TIB-152) of human T cells, known to express integrin α4β1; endogenous in cells; host or cells: Jurkat (ATCC TIB-152), human T cells
In words: VCAM antagonist activity (VCAM-1/α4β1 binding assay), Jurkat cells binding to VCAM-1. The class given is cell-based. The settings on record: Jurkat cells binding to recombinant human VCAM-1, 30 minutes at room temperature; read-out: VCAM antagonistic activity IC50, α4β1. The protocol: VCAM Antagonist Activity (VCAM-1/α4β1 Binding Assay)
The capacity of a test substance antagonistic to the binding of cell strain Jurkat (ATCC TIB-152) of human T cells, known to express integrin α4β1, to VCAM-1 was determined.
(§1) 100 μl/well of a solution (500 ng/ml) of recombinant human VCAM-1 (R & D systems) solution diluted with buffer A (0.1 M NaHCO3, pH 9.6) was added to a micro titer plate having 96 wells (Nunc Maxisorp). After the incubation at 4° C. overnight, unbound VCAM-1 was removed by washing once with PBS. After completion of the washing, a buffer (buffer B) obtained by diluting Block Ace (Dainippon Pharmaceutical Co., Ltd.) with PBS to ¼ concentration was added in an amount of 150 μl/well. After the incubation at room temperature for 1 hour, buffer B was removed and the plate was washed with PBS once.
Jurkat cells were washed with Dulbecco modified Eagle medium (SIGMA, hereinafter referred to as “DMEM”) twice and then incubated in DMEM containing 10 μg/ml of Calcein-AM (Wako Pure Chemical Industries, Ltd.) at 37° C. in dark place for 30 minutes to label with fluorescence. The cells were again suspended in a binding buffer (20 mM HEPES, DMEM containing 0.1% BSA).
(§2) 50 μl of a test substance of various concentrations obtained by the dilution with the binding buffer was added to the plate. Immediately thereafter, 50 μl (final volume: 100 μl/well) of the fluorescent Jurkat cells (4×10^6 cells/ml) were added thereto, and they were incubated at room temperature for 30 minutes. After the shaking on a plate shaker (IKA MTS-4) at 800 rpm for 30 seconds, the solution was immediately removed to remove the unbound cells. The fluorescence quantity of the bound cells remaining in the wells was determined with a fluorescent plate reader (Wallac 1420 ARVO multi-label counter) (filter excitation wave length: 485 nm, emission wave length: 535 nm). The fluorescent strength thus obtained is proportional to the number of Jurkat cells bound to VCAM-1 and remaining on the plate. The binding rate of each test material in various concentrations was determined while the fluorescent strength of the test material-free well was determined to be 100%. The concentration IC50 for the 50% binding inhibition was calculated.

The target of assay [2] is T2, integrin α4β7 (Homo sapiens, UniProt P13612+P26010).
T2 construct: lymphoma cell strain RPMI-8866 of human B cells, known to express integrin α4β7; endogenous in cells; host or cells: RPMI-8866, human B-cell lymphoma line
T2 sequence (P13612 34-1032): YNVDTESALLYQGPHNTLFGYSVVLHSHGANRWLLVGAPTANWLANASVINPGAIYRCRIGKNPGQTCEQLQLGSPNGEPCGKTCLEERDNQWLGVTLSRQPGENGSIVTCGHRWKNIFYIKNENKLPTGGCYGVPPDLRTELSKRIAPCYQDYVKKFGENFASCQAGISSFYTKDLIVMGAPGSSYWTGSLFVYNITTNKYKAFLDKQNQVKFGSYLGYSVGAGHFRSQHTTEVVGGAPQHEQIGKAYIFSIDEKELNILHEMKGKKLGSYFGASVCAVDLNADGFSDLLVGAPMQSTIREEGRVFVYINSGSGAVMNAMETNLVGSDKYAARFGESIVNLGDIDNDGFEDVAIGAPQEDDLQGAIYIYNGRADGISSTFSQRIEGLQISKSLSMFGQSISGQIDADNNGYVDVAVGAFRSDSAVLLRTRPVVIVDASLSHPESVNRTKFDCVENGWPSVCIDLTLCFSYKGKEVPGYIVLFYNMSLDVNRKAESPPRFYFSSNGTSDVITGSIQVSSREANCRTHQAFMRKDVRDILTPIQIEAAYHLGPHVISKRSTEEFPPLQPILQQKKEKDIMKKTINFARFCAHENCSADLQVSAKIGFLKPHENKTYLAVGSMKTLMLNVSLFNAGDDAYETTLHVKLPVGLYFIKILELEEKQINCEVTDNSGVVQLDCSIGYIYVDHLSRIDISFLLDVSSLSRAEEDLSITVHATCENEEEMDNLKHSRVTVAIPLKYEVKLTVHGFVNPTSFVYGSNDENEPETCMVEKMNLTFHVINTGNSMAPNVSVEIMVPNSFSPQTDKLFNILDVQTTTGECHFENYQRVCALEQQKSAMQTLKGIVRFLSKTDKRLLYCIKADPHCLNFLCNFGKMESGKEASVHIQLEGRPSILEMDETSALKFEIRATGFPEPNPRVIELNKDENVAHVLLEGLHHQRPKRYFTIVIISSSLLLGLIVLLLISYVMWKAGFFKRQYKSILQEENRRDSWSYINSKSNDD
T2 sequence (P26010 20-798): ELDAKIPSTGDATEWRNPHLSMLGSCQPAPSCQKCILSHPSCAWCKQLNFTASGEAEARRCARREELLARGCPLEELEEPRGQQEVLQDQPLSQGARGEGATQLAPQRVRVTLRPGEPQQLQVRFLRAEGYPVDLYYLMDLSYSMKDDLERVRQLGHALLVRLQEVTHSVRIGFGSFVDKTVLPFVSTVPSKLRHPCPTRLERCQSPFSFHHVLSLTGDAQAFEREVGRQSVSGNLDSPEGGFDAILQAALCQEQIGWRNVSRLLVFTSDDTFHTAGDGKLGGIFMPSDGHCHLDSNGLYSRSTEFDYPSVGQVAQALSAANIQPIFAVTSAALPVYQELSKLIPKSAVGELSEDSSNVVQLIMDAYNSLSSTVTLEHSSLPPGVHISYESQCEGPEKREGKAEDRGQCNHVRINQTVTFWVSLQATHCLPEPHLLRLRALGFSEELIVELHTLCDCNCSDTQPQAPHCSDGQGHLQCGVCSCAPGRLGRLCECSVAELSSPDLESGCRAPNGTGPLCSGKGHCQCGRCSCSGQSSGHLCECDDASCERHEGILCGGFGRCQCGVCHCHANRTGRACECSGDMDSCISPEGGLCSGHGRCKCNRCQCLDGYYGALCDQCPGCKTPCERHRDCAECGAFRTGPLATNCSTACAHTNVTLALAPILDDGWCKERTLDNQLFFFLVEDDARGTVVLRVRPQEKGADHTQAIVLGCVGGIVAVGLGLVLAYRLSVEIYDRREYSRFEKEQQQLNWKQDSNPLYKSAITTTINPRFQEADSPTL
In words: VCAM antagonistic activity (VCAM-1/α4β7 binding assay), RPMI-8866 cells binding to VCAM-1. The class given is cell-based. The settings on record: RPMI-8866 cells binding to recombinant human VCAM-1, binding buffer containing 4 mM MnCl2, 30 minutes at room temperature. On the procedure:
VCAM Antagonistic Activity (VCAM-1/α4β7 Binding Assay)
The capacity of a test substance antagonistic to the binding of lymphoma cell strain RPMI-8866 of human B cells, known to express integrin α4β7, to VCAM-1 was determined.
as §1
RPMI-8866 cells were incubated in Dulbecco modified Eagle medium containing 10 μg/ml of Calcein-AM (Wako Pure Chemical Industries, Ltd.) (SIGMA, hereinafter referred to as “DMEM”) at 37° C. for 30 minutes to label with fluorescence. The cells were again suspended in a binding buffer (20 mM HEPES, DMEM containing 0.1% BSA) containing 4 mM of MnCl2.
as §2, with “RPMI-8866” for “Jurkat”

T1 sequence (P05556 21-798, one chain of several): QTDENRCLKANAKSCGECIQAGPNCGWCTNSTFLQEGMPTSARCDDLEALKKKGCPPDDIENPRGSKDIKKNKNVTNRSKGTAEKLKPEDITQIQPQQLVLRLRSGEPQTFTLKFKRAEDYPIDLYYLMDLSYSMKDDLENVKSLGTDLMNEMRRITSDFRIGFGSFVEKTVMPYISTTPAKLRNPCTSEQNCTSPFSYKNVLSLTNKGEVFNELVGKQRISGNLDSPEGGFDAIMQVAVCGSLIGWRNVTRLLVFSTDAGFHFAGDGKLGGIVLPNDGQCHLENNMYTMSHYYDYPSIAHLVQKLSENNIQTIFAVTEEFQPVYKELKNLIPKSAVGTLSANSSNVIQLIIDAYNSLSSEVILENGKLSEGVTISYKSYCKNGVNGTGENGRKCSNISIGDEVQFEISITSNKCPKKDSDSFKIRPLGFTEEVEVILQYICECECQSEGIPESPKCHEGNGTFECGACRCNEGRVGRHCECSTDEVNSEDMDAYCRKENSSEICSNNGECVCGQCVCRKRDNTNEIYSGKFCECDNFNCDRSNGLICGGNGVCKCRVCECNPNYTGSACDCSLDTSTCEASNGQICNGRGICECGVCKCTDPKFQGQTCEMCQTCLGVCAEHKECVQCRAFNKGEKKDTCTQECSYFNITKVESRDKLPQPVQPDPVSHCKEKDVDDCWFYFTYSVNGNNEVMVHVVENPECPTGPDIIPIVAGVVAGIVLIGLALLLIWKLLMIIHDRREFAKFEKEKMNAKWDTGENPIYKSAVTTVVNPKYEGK

The term pIC50 denotes −log10 of the IC50, conventionally taken in molar units. As to `O=C(N[C@@H](Cc1ccc(-n2ncc3ccccc3c2=O)cc1)C(=O)O)c1c(Cl)cccc1Cl` [Example 21], the figures for the pIC50 in assay [1] and in assay [2] were 6.72 and 8.62, respectively. Turning to `CCC(CC)(C(=O)N[C@@H](Cc1ccc(N2C(=O)c3cccc(C)c3C2=O)cc1)C(=O)O)C(=O)N1CCCC1` [Example 26], the pIC50 in assay [2] was 7.36. With `CC1CN(c2ccc(C[C@H](NC(=O)c3c(Cl)cccc3Cl)C(=O)O)cc2)C(=O)c2ccccc21` (some centres unmarked) [Example 46], the negative logarithm of the IC50 (pIC50) in assay [2] is 7.17. As to `CCCc1c(-c2ccc(C[C@H](NC(=O)c3c(Cl)cccc3Cl)C(=O)O)cc2)c(=O)n(C)c2ccccc12` [Example 45], the pIC50 is 7.43 in assay [1] and 8.14 in assay [2]. As for `Cn1c(=O)c(-c2ccc(C[C@H](NC(=O)c3c(Cl)cccc3Cl)C(=O)O)cc2)cc2cc(S(C)(=O)=O)ccc21` [Example 30], the figures for the pIC50 in assay [1] and in assay [2] were 7.19 and 8.41, respectively.

For the compound `O=C(N[C@@H](Cc1ccc(N2Cc3ccccc3CC2=O)cc1)C(=O)O)c1c(Cl)cccc1Cl` [Example 47], the negative-log IC50 (pIC50) in assay [2] was 7.01.

On to `COc1c(-c2ccc(C[C@H](NC(=O)c3c(Cl)cccc3Cl)C(=O)O)cc2)c(=O)n(C)c2ccc(Cl)cc12` [Example 44], for which the pIC50 is 6.77 in assay [1] and 7.96 in assay [2].

Consider `Cn1c(=O)c(-c2ccc(C[C@H](NC(=O)c3c(Cl)ccnc3Cl)C(=O)O)cc2)cc2ccccc21` [Example 19], for which the results for the pIC50 in assay [1] and in assay [2] were 6.54 and 7.96, respectively. For the compound `Cn1c(=O)c(-c2ccc(C[C@H](NC(=O)c3c(Cl)cc(NS(C)(=O)=O)cc3Cl)C(=O)O)cc2)cc2ccccc21` [Example 31], the pIC50 in assay [1] was 7.33; in assay [2], 8.52. On the same counts, the results for `CCC(CC)(C(=O)N[C@@H](Cc1ccc(-c2cc3ccccc3n(C)c2=O)cc1)C(=O)O)C(=O)N1CCCC1` [Example 8, (2S)-2-[[2-ethyl-2-(1-pyrrolidinecarbonyl)butanoyl]amino]-3-[4-(1-methyl-2-oxo-1,2-dihydro-3-quinolinyl)phenyl]propionic acid] are 6.49 and 7.74. On to `Cn1c(=O)c(-c2ccc(C[C@H](NC(=O)c3c(Cl)cccc3Cl)C(=O)O)cc2)cc2ccccc21` [Example 1, (2S)-2-[(2,6-dichlorobenzoyl)amino]-3-[4-(1-methyl-2-oxo-1,2-dihydro-3-quinolinyl)phenyl]propionic acid], for which the pIC50 in assay [1] is 6.21; in assay [2], 7.05. For `Cc1c(-c2ccc(C[C@H](NC(=O)c3c(Cl)cccc3Cl)C(=O)O)cc2)c(=O)n(C)c2ccccc12` [Example 42] the same measures were 7.28 and 8.39. For `COc1c(-c2ccc(C[C@H](NC(=O)c3c(Cl)cccc3Cl)C(=O)O)cc2)c(=O)n(C)c2ccccc12` [Example 6, (2S)-2-[(2,6-dichlorobenzoyl)amino]-3-[4-(4-methoxy-1-methyl-2-oxo-1,2-dihydro-3-quinolinyl)phenyl]propionic acid] the same measures were 7.36 and 8.46.

`Cn1c(=O)c(-c2ccc(C[C@H](NC(=O)c3c(Cl)cccc3Cl)C(=O)O)cc2)cc2cc(O)ccc21` [Example 33]: the values for the pIC50 in assay [1] and in assay [2] were 6.59 and 7.68, respectively. For `CCCOc1c(-c2ccc(C[C@H](NC(=O)c3c(Cl)cccc3Cl)C(=O)O)cc2)c(=O)n(C)c2ccccc12` [Example 40] the same measures were 6.94 and 8.19. `O=C(N[C@@H](Cc1ccc(N2C(=O)c3cccc(=O)n3C2=O)cc1)C(=O)O)c1c(Cl)cccc1Cl` [Example 22]: the pIC50 in assay [2] was 6.82. `CCn1c(=O)c(-c2ccc(C[C@H](NC(=O)c3c(Cl)cccc3Cl)C(=O)O)cc2)c(C)c2ccccc21` [Example 43]: the results for the pIC50 in assay [1] and in assay [2] were 6.75 and 8.00, respectively. Consider `CCOc1c(-c2ccc(C[C@H](NC(=O)c3c(Cl)cccc3Cl)C(=O)O)cc2)c(=O)n(C)c2ccccc12` [Example 41], for which the negative logarithm of the IC50 (pIC50) is 7.13 in assay [1] and 8.35 in assay [2]. Take `Cc1cn(-c2ccc(C[C@H](NC(=O)c3c(Cl)cccc3Cl)C(=O)O)cc2)c(=O)c2ccccc12` [Example 23]: the pIC50 in assay [2] is 7.46. For `Cn1c(=O)c(-c2ccc(C[C@H](NC(=O)c3c(Cl)cccc3Cl)C(=O)O)cc2)cc2cc([N+](C)(C)C)ccc21` [Example 14], the pIC50 is 6.82 in assay [1] and 8.48 in assay [2].
